Reference: paper PMC10817170, “Effect of an NHE3 inhibitor in combination with an NPT2b inhibitor on gastrointestinal phosphate absorption in Rodent models” (PLOS ONE, 2024)
Values joined by “and” are separate entries in the source; they are usually repeats but may differ in a detail not shown here. Equal values may be shown once.

Assays:
[1] = tested on: intestinal phosphate absorption; assay: Phosphate absorption in rats: 33P in plasma (15 min) and recovered in gastrointestinal tract (4 h), single agents and combination; assay type: in vivo; details: 0.4 mg/kg LY3304000, 10 mg/kg LY3358966 or both
Method: We also evaluated the effect of LY3304000 and LY3358966 in combination on phosphate absorption in rats by measuring radioactive phosphate recovered in either plasma or the gastrointestinal (GI) tract. In this combination study, two vehicles were used. One is 1% HEC vehicle for making LY3304000 dosing solution, another is 0.46% PVP-VA vehicle contained in LY3358966 SDD. To make the LY3358966 dosing solution, an appropriate amount of LY3358966-SDD was weighed for a 10 mg/kg API dosing solution with 5 mL/kg dosing volume and dissolved in water. To make the LY3304000 dosing solution, an appropriate amount of LY3304000 was weighed for a 0.4 mg/kg dosing solution with 5 mL/kg dosing volume and dissolved in 1% HEC. The Radiolabeled Phosphate Dosing Solutions was made as described above. Following 4-hour fasting with access to water, male SD rats were orally dosed at 10 mL/kg with either two vehicles, an LY3358966 dosing solution and 1% HEC vehicle, an LY3304000 dosing solution and 0.46% PVP-VA vehicle, or an LY3304000 and LY3358966 dosing solutions, combined 1:1 by volume. Fifteen minutes later, Radiolabeled Phosphate Dosing Solution was orally dosed in a 2 mL volume. Fifteen minutes after the radiolabeled phosphate dose, blood was collected by retro orbital bleeding, and plasma was prepared. Radioactivity (dpm) in 20-μL plasma was measured by scintillation counting. The mole amount of phosphate uptake in the plasma was calculated as described above. Four hours post radioactive phosphate dose, the animals were sacrificed by asphyxiation with CO2 followed by cervical dislocation and then the stomach, small intestine, large intestine, and feces were collected and weighed. The tissues and feces were digested in 20 mL or 10 mL of 1 N NaOH, respectively, overnight at 37°C. A 100 μL sample of the homogenates were dispensed into scintillation vials and mixed with 10 mL of Optiphase Supermax scintillation fluid (PerkinElmer), and radioactivity (dpm) was measured by scintillation counting. Very little radioactivity was detected in the feces at 4 hours post radioactive phosphate dose. The percentage of radiolabeled phosphate recovered in the gastrointestinal tissue was defined as radioactivity (dpm) recovered in each fraction compared to the amount of radioactivity (dpm) administered. The mole amount of phosphate uptake into plasma in vehicle and LY3358966 and LY3304000 alone groups were compared to the LY3358966 and LY3304000 combination group using One-way ANOVA with Dunnett’s multiple comparisons. Percent recovery of ^33P phosphate in the rat gastrointestinal tract was analyzed by two-way analysis of variance (ANOVA) in JMP 12.1 to test for additivity of the effects of LY3304000 and LY3358966 on inhibiting phosphate absorption.

[2] = tested on: acute phosphate uptake into plasma; set-up: method as in PMID 35194979; details: rats; cited from earlier work
[3] = tested on: acute phosphate uptake into plasma; set-up: method as in PMID 35194979; details: mice; cited from earlier work
[4] = tested on: acute phosphate uptake into plasma; assay: Acute phosphate uptake in rats, LY3304000 with fixed 1.2 mg/kg LY3358966; assay type: in vivo; details: 1.2 mg/kg LY3358966 alone
Method: NHE3 inhibitor LY3304000 and NPT2b inhibitor LY3358966 SDD were used in combination to assess their effect on phosphate absorption in rats. To make the LY3358966 dosing solution, an appropriate amount of LY3358966 SDD was weighed for a 1.2 mg/kg API dosing solution with 10 mL/kg dosing volume and dissolved in water. To make the LY3304000 dosing solution, an appropriate amount of LY3304000 was weighed for a 10 mg/kg dose with 10 mL/kg dosing volume and dissolved in 1% HEC vehicle. The subsequent dosing solutions for 3, 1, 0.3, 0.1, 0.03, 0.01, 0.003, and 0.001 mg/kg LY3304000 were prepared by serial dilutions with 1% HEC. Following 12-hour fasting, male SD rats were orally dosed at 10 mL/kg with 1% HEC vehicle, 1.2 mg/kg LY3358966 or increasing doses of LY3304000 with a fixed, 1.2 mg/kg dose of LY3358966. In the vehicle group, the animals were dosed first with 1% HEC immediately followed by water. In the LY3358966 alone group, the animals were first dosed with 1% HEC immediately followed by LY3358966. In the combination groups, the animals were dosed first with LY3304000 immediately followed by LY3358966. Fifteen minutes later, 2 mL Radiolabeled Phosphate Dosing Solution was orally dosed. Fifteen minutes later, blood was collected by cardiac stick, and plasma was prepared. Radioactivity (dpm) in 50-μL plasma was measured by scintillation counting. To measure the total radioactivity dosed to each rat, the radioactivity in two 10-μL samples of the Radiolabeled Phosphate Dosing Solutions was measured by scintillation counting. The mole amount of phosphate uptake was calculated as described above to determine acute phosphate uptake.

[5] = tested on: acute phosphate uptake into plasma; set-up: method as in PMID 34978760; details: cited from earlier work
phosphate absorption = tested on: phosphate absorption; set-up: method as in PMID 30158152; details: cited from earlier work

CC1(C)CN(C(=O)NCCCCO)CCN1Cc1cccc(C(=O)Nc2sc3c(c2C(=O)Nc2cc(F)c(CCc4ccc(C(=O)O)cc4)c(F)c2)CCCC3)c1 [LY3358966]
phosphate uptake into plasma ([1]; 15 min post 33P phosphate, vehicle 166, mean ± SEM, n=8): 108 nmol | inhibition of phosphate uptake into plasma ([1]; 15 min post 33P phosphate, versus vehicle): 35% | percentage of radiolabeled phosphate recovered, Feces ([1]; 4 h): <0.1% | percentage of radiolabeled phosphate recovered, Large Intestine ([1]; 4 h): 18.43 +/- 2.03% | percentage of radiolabeled phosphate recovered, Small Intestine ([1]; 4 h): 8.98 +/- 0.48% | percentage of radiolabeled phosphate recovered, Stomach ([1]; 4 h): 4.86 +/- 1.13% | percentage of 33P recovered in GI tract, total ([1]; 4 h post 33P phosphate, stomach, small intestine, large intestine and feces, vehicle 25%): 32 ± 1% and 32% and 32.27 +/- 1.38% | inhibition of acute phosphate uptake [2]: 20–30% | decrease of acute uptake of radiolabeled phosphate into plasma [3]: over 70% | phosphate uptake, % of the vehicle control [4]: 71% | phosphate uptake into plasma ([4]; vehicle 710 nmoles): 504 nmol

CN1Cc2c(Cl)cc(Cl)cc2[C@H](c2cccc(S(=O)(=O)NCCOCCOCCNC(=O)NCCCCNC(=O)NCCOCCOCCNS(=O)(=O)c3cccc([C@@H]4CN(C)Cc5c(Cl)cc(Cl)cc54)c3)c2)C1 [tenapanor]
effect on plasma 33P-phosphate in NHE3 knockout mice ([5]; 60 minutes after dosing 33P-phosphate): no effect | 33P-phosphate levels in plasma, lower than vehicle ([5]; mice, 5 minutes post phosphate dose): about 67% | 33P-phosphate levels in plasma, elevated versus vehicle ([5]; mice, 60 min post phosphate dose): about 50% | effect on phosphate absorption (phosphate absorption): little effect
